Measurements published in patent US10611742B2, “4-oxo-4,5-dihydrothiazole derivative, preparation method and use thereof” (Institute of Pharmacology and Toxicology Academy of …, priority 2015, dated 2020).
pIC50: −log10 of the molar value.

Columns and labels:
Assay type in all cases: cell-based
[1] = test system: enterovirus EV71 (SZ-98 strain); experiment: anti-EV71 activity, therapeutic effect on Vero cell (CPE inhibition, Celltiter Glo)
Method: (§1) Test principle: Vero cell, MRC-5 cell, and RD cell were used as host of virus, respectively, and samples were tested for their inhibition of cytopathic effect (CPE) caused by virus.
(§2) 1. Virus strain: enterovirus EV71 (SZ-98 strain, provided by Chinese Center for Disease Control and Prevention), Vero cell (provided by the Cell Bank of Chinese Academy of Sciences), MRC-5 cell (provided by the Cell Bank of Chinese Academy of Sciences), and RD cell (provided by the Cell Bank of Chinese Academy of Sciences), were subjected to passage culture, respectively, and stored at −80° C.
(§3) 2. Sample treatment: a test sample (Compounds 1-14 and positive control agent) was dissolved in dimethyl sulfoxide (DMSO) to prepare a stock solution, which was stored at −20° C. The stock solution was diluted with DMEM medium (Gibco Company) containing 2% fetal bovine serum (Gibco Company) to prepare a 100 μM solution before use, and was 3-fold diluted with the medium to obtain 8 diluted concentrates.
(§4) 3. Positive control agent: Con1 (pitstop2) (purchased from AmyJet Scientific Inc., Abcam), a broad-spectrum antiviral inhibitor.
(§5) 4. Test method: • 4.1 Therapeutic effect: the cells were seeded on a 96-well culture plate, and cultured in a 5% CO2, 37° C. incubator for 24 h. About 100 TCID50 enterovirus EV71 was added to each well. After adsorption at 37° C. for 1 h, the virus solution was discarded, and a drug was added at different diluted concentrates, respectively. Meanwhile, virus control and cell control were set, and cultured at 37° C. […] The virus-inhibition rate of a sample at each concentration was calculated based on the chemiluminescent value, the sample concentration was used as abscissa, and the inhibition rate was used as ordinate, and S-Curve fitting was performed by using Origin software. Half maximal inhibitory concentration (IC50) of each sample for enterovirus EV71 was calculated based on the fitting results. Median toxic concentration (TC50) was determined by the same method. […] To each well, a drug was added at a different diluted concentration, then the cells were cultured at 37° C. for 2 h, and then the drug was discarded. About 100 TCID50 enterovirus EV71 was added to each well, adsorbed at 37° C. for 1.5 h, then the virus solution was discarded, and a maintenance medium free of drug was added. Meanwhile, virus control and cell control were set, and cultured at 37° C. […] The virus-inhibition rate of a sample at each concentration was calculated, and half maximal inhibitory concentration (IC50), median toxic concentration (TC50), and selection index (SI) of each sample for enterovirus EV71 were calculated. The methods for determining and calculating them were as described in Item 4.1

[2] = test system: enterovirus EV71 (SZ-98 strain); experiment: anti-EV71 activity, therapeutic effect on MRC-5 cell (CPE inhibition, Celltiter Glo); conditions: MRC5
Method: as §1, §2, §3, §4, §5

[3] = test system: enterovirus EV71 (SZ-98 strain); experiment: anti-EV71 activity, therapeutic effect on RD cell (CPE inhibition, Celltiter Glo)
Method: as §1, §2, §3, §4, §5

[4] = test system: enterovirus EV71 (SZ-98 strain); experiment: anti-EV71 activity, preventive effect on Vero cell (CPE inhibition)
Method: as §1, §2, §3, §4, §5

[5] = test system: enterovirus EV71 (SZ-98 strain); experiment: anti-EV71 activity, preventive effect on RD cell (CPE inhibition)
Method: as §1, §2, §3, §4, §5

[6] = median toxic concentration on Vero cell; conditions: African green monkey, Vero cells; for CC50 at 2 h: Table 2-1 (preventive effect), read-out: TC50; for CC50: Table 1-1 (therapeutic effect), read-out: TC50 (the source's name)
Method: as §2, §3, §5

Vero cell = experiment: median toxic concentration on Vero cell
Method: as §2, §3, §5

[7] = median toxic concentration on MRC-5 cell; conditions: human, MRC-5 cells, Table 1-2 (therapeutic effect), read-out: TC50 (the source's name)
Method: as §2, §3, §5

[8] = median toxic concentration on RD cell; conditions: human, RD cells; for CC50: read-out: TC50 (the source's name); for CC50 at 2 h: Table 2-2 (preventive effect), read-out: TC50
Method: as §2, §3, §5

[9] = test system: clathrin-mediated endocytosis of transferrin; experiment: inhibition of clathrin-mediated endocytosis of transferrin in HeLa cells (fluorescence microscope); conditions: for inhibitory effect on endocytosis of transferrin (in words): 1.25 to 40 μmol/L; for inhibition at 20 µM: Homo sapiens, 20 μM compound, read-out: Inhibition rate
Method: 1. Experiment principle: transferrin was a key protein for clathrin-mediated endocytosis. Therefore, by determining the effect of a compound on transferrin in HeLa cell, the inhibitory effect of the compound on clathrin-mediated endocytosis could be evaluated. 2. Sample treatment: a test compound was dissolved in DMSO to prepare a stock solution, which was stored at −20° C. The stock solution was diluted with HEPES buffer (25 mm HEPES, 20 mm Glucose, 1% BSA, sterile water) to prepare a solution with an initial concentration of […] before use, and was 2-fold diluted with the buffer to obtain 6 diluted concentrations from 1.25 to 40 μmol/L. 4. Test method: HeLa cells (provided by the Cell Bank of Chinese Academy of Sciences) were seeded on a 24-well culture plate coated with 0.1 mg/ml polylysine, a serum-free medium DMEM (Gibco Company) was added at 500 μl/well, and the cells were cultured for one night. To each well, 0.5 μl a test compound at a different diluted concentration or 0.1 v/v % DMSO was added, then the pretreatment was performed for 15 min, and then 20 μg/ml alexa^568 transferrin (2 μl) (TF, SIGMA-ALDRICH Company) was added, and the incubation was carried out at 37° C. for 15 min. The resultant mixture was then washed with Live Cell Imaging Solution (LCIS, Invitrogen Company) and an acid at a low pH ([…] NaCl solution containing 0.5% acetic acid) for 30 s, respectively, followed by fixing with cold methanol, and was observed under fluorescence microscope.

[10] = EV71 (SZ-98 strain), therapeutic effect on Vero cell, read-out: IC50

| pIC50 [1, 10] | pIC50 ([3]; EV71 (SZ-98 strain)) | pIC50 [4] | pIC50 [5] | pIC50 ([1]; Enterovirus, EV71, Vero cell, read-out: activity (IC50)) | pIC50 ([3]; Enterovirus, EV71) | Compound | pIC50 [2] | anti-EV71 activity (in words) [3] | CC50 at 2 h [6] | TC50 (Vero cell; Table 1-1 (therapeutic effect)) | CC50 [7] | CC50 ([8]; Table 1-3 (therapeutic effect)) | CC50 at 2 h [8] | CC50 [6] | toxicity compared with the positive control agent (in words) (Vero cell) | CC50 [8] | endocytosis of transferrin at 20 μM (in words) [9] | inhibitory effect on endocytosis of transferrin (in words) [9] | inhibition at 20 µM [9] |
| --- | --- | --- | --- | --- | --- | --- | --- | --- | --- | --- | --- | --- | --- | --- | --- | --- | --- | --- | --- |
| < 3.70 | 4.65 | ≤ 4.65 | 3.70 |  |  | O=C1N=C(NS(=O)(=O)c2cccc3ccccc23)S/C1=C\c1ccc(C(=O)O)cc1 [Compound 5, Naphthalene-1-sulfonic acid [5-(4-carboxy-benzylidene)-4-oxo-4,5-dihydro-thiazol-2-yl] amide] | < 3.70 | better anti-EV71 activity | 200 µM | 200 µM | > 200 µM | > 200 µM | > 200 µM |  |  |  |  |  |  |
| 5.29 | 5.13 | < 5.13 | < 5.13 | 5.29 | 5.13 | CCN(CC)c1ccc(/C=C2\SC(NS(=O)(=O)c3cccc4ccccc34)=NC2=O)c(O)c1 [Compound 3, Naphthalene-1-sulfonic acid [5-(2-hydroxy-4-diethylamino-benzylidene)-4-oxo-4,5-dihydro-thiazol-2-yl] amide] | < 5.13 | better anti-EV71 activity | 12.8 µM |  | 12.8 µM |  | 12.8 µM | 12.8 µM | a lower toxicity than the positive control agent | 12.8 µM | completely inhibited | dose-dependent | 100% |
| < 5.13 | < 5.13 | < 5.13 | 5.29 |  |  | O=C1N=C(NS(=O)(=O)c2cccc3ccccc23)S/C1=C\c1ccc(F)cc1Cl [Compound 10, Naphthalene-1-sulfonic acid [5-(2-chloro-4-fluoro-benzylidene)-4-oxo-4,5-dihydro-thiazol-2-yl] amide] | < 5.13 |  | 10.7 µM |  | 12.8 µM | 15.4 µM | 15.4 µM | 10.7 µM |  |  | completely inhibited | dose-dependent | 100% |
